From US20140336218A1, “ARFORMOTEROL AND TIOTROPIUM COMPOSITIONS AND METHODS FOR USE” (priority 2008, published 2014)

Key:
COPD patients [1] = assay: Inspiratory capacity in 2-week clinical trial; type: in vivo, human; conditions: for Mean (SD) inspiratory capacity improvement from baseline: 2-hours post-dosing; for Difference in trough FEV1 between combined therapy and mono-therapies, LS mean / Change in trough inspiratory capacity, mean (SD): ITT; for Difference in trough FEV1 between combined therapy and mono-therapies, LS mean / Change in trough inspiratory capacity, mean (SD) / Difference between combined therapy and mono-therapies in change in inspiratory capacity, LS mean: week 2; for Difference in trough FEV1 between combined therapy and mono-therapies, LS mean: printed below the trough inspiratory capacity line, combined therapy versus the mono-therapy; for Change in trough inspiratory capacity, mean (SD): trough = 24 hour time point after morning dose; for Difference between combined therapy and mono-therapies in change in inspiratory capacity, LS mean: combined versus the mono-therapy; for Change in Inspiratory Capacity, mean (SD): week 2 from study baseline
Protocol: (§1) This was a 2-week, prospective, multi-center (34 sites), randomized, modified blind, double dummy, parallel group study designed to evaluate the efficacy and safety of the combination of arformoterol 15 μg BID and tiotropium 18 μg QD (dosed sequentially) versus the individual mono-therapies in the treatment of COPD patients. The study was conducted according to the principles established by the Declaration of Helsinki (see, e.g., World Medical Association Declaration of Helsinki. Recommendations guiding physicians in biomedical research involving human subjects. JAMA 1997; 277:925-926.). Appropriate Institutional Review boards approved the protocol and written informed consent was obtained from the patients.
(§2) Eligible patients were randomized to receive one of three treatments for 14 days: nebulized arformoterol 15 μg (Brovana®, Sepracor Inc., Marlborough, Mass.) BID and placebo DPI QD, nebulized placebo BID and tiotropium 18 μg (Spriva® HandiHaler® Boehringer Ingelheim, Ridgefield, Conn.) DPI QD, or nebulized arformoterol 15 μg BID and tiotropium 18 μg DPI QD. The nebulized drug was administered first using the PARI LC Plus® nebulizer driven by the Duraneb 3000® compressor (Pari: Pari Respiratory Equipment Inc., Midlothian, Va.) at a flow rate of 3.3 L/minute followed (within 5 minutes) by the DPI administration (HandiHaler®). The tiotropium and placebo DPI capsules were identical in size and shape but differed in color.
At week 0 and week 2, medical event calendars and blood samples were collected and vital signs and heart measurements analyzed. At week 0, spirometry was performed pre-morning dose, immediately (within 5 minutes) and at 30 minutes, 1, 2, 4, 6, 8, 10, and 12 hours post-first dose. After the 12-hour pulmonary function test patients self-administered the evening dose of study medication. At week 2, serial spirometry was also performed as at week 0, as well as immediately (within 5 minutes) following the evening dose (administered 12 hours after the morning dose) and 12.5, 13, 14, 16, 23, and 24 hours post-morning dose. Inspiratory capacity was evaluated pre-dose and at 2 hours post-morning dose at week 0, and pre-dose and 2, 11, 14, and 24 hours post-morning dose at week 2. All inspiratory capacity measurements were the mean of acceptable inspiratory capacity maneuvers, two of which were reproducible. Prior to an inspiratory capacity maneuver a patient had to have a stable expiratory level for about 10 breaths. Once the stable level was achieved, at the end of exhalation of a normal breath the patient was asked to make a steady and full inhalation at normal inspiratory flow rates until the lungs were completely full, and then to exhale at a normal rate.
All pulmonary function values used were the highest among the three acceptable maneuvers. The Investigator ensured that all spirometry was performed in accordance with the American Thoracic Society/European Respiratory Society Standardisation of Spirometry guidelines (see, e.g., Miller M R, Hankinson J, Brusasco V, Burgos F, Casaburi R, Coates A, et al. Standardisation of spirometry. Eur Respir J 2005; 26:319-338; herein incorporated in its entirety by reference). Centralized over-reading of spirometry and inspiratory capacity pulmonary function measures were used for quality control.
The study was designed to detect a mean treatment difference of time normalized FEV1AUC over 24 hours (FEV1AUC0-24) (the primary endpoint) of 0.075 L with a standard deviation of 0.016 L when comparing combined therapy with mono-therapy, using a two-sided 5% significance level, following 2-weeks of dosing for the primary comparison with 80% power. All efficacy analyses were performed on the ITT population. All statistical testing was 2-tailed and conducted at the 5% significance level, unless otherwise indicated.

COPD patients [2] = assay: Transition Dyspnea Index (TDI) in 2-week clinical trial; type: in vivo, human; conditions: for Patients with change ≧1 unit (TDI), n (%) / TDI, mean (SD) / Patients with change of ≧1 unit (TDI), n (%) / Difference between combined therapy and mono-therapies in TDI, LS mean / Patients with change of ≧1 unit (TDI), %: week 2; for Patients with change of ≧1 unit (TDI), %: cells print n (%); for improvement in TDI: patients with <50% predicted FEV1 at baseline
Protocol: as §1, §2
At screening, the Baseline Dyspnea Index (BDI) (see, e.g., Mahler D A, Weinberg D H, Wells C K, Feinstein A R. The measurement of dyspnea. Contents, interobserver agreement, and physiologic correlates of two new clinical indexes. Chest 1984; 85:751-758; herein incorporated in its entirety by reference) was assessed prior to the first clinic dose, and at week 2 the Transition Dyspnea Index (see id.) was evaluated before first morning dose. The baseline focal score (range 0 to 12) and the transition focal score (range −9 to 9) were the sums of the functional impairment, magnitude of task, and magnitude of effort scores (see id.). Higher scores indicate less dyspnea at baseline (BDI) or greater improvement in dyspnea from baseline (TDI).
The study was designed to detect a mean treatment difference of time normalized FEV1AUC over 24 hours (FEV1AUC0-24) (the primary endpoint) of 0.075 L with a standard deviation of 0.016 L when comparing combined therapy with mono-therapy, using a two-sided 5% significance level, following 2-weeks of dosing for the primary comparison with 80% power. All efficacy analyses were performed on the ITT population. All statistical testing was 2-tailed and conducted at the 5% significance level, unless otherwise indicated. […] To control for multiple comparisons, statistical tests of mean treatment group differences were considered significant if the overall treatment effect in the model was statistically significant at the 5% level. Pulmonary function severity subgroup analysis was performed post hoc by stratifying patients according to the GOLD COPD guidelines (see, e.g., Pauwels R A, Buist A S, Calverley P M, Jenkins C R, Hurd S S. Global strategy for the diagnosis, management, and prevention of chronic obstructive pulmonary disease. NHLBI/WHO Global Initiative for Chronic Obstructive Lung Disease (GOLD) Workshop summary. Am J Respir Crit Care Med 2001; 163:1256-1276;; herein incorporated in its entirety by reference) (<30%, ≧30% to <50%, and ≧50%, respectively). Pairwise comparisons between treatment groups were performed using least square means (LS means) from the linear model with the study baseline (or predose where applicable) as a covariate and the treatment group as a fixed effect.

[3] = baseline percent predicted FEV1 <50%
[4] = baseline percent predicted FEV1 ≧50%
[5] = ITT, transition focal score range −9 to 9
[6] = baseline percent predicted FEV1 <50%, combined versus the mono-therapy
[7] = baseline percent predicted FEV1 ≧50%, combined versus the mono-therapy

Row | SMILES | Mean (SD) inspiratory capacity improvement from baseline (COPD patients [1]) [L] | Difference in trough FEV1 between combined therapy and mono-therapies, LS mean (COPD patients [1]) [L] | Change in trough inspiratory capacity, mean (SD) (COPD patients [1]) | Difference between combined therapy and mono-therapies in change in inspiratory capacity, LS mean (COPD patients [1]; [3]) [L] | Change in Inspiratory Capacity, mean (SD) (COPD patients [1]; [3]) | Difference between combined therapy and mono-therapies in change in inspiratory capacity, LS mean (COPD patients [1]; [4]) [L] | Change in Inspiratory Capacity, mean (SD) (COPD patients [1]; [4]) | Patients with change ≧1 unit (TDI), n (%) (COPD patients [2]; ITT) | TDI, mean (SD) (COPD patients [2]; [5]) | Patients with change of ≧1 unit (TDI), n (%) (COPD patients [2]; [3]) | TDI, mean (SD) (COPD patients [2]; [3]) | Difference between combined therapy and mono-therapies in TDI, LS mean (COPD patients [2]; [6]) | TDI, mean (SD) (COPD patients [2]; [4]) | Patients with change of ≧1 unit (TDI), % (COPD patients [2]; [4]) | Difference between combined therapy and mono-therapies in TDI, LS mean (COPD patients [2]; [7]) | improvement in TDI (COPD patients [2]) [units] | Difference between combined therapy and mono-therapies in TDI, LS mean (COPD patients [2]; ITT, combined therapy versus the mono-therapy) [L]
1 | COc1ccc(C[C@@H](C)NC[C@H](O)c2ccc(O)c(NC=O)c2)cc1 [Arformoterol] | 0.20 | 0.07 | 0.07 (0.30) L | 0.08 | 0.12 (0.31) L | 0.06 | −0.01 (0.27) L | 50 (66.7) n (%) | 2.3 (2.4) | 34 (72.3) n (%) | 2.3 (2.3) | 1.3 | 2.3 (2.6) | 17 (57.1) % | 0.2 | 2.3 | 
2 | C[N+]1(C)[C@@H]2C[C@@H](OC(=O)C(O)(c3cccs3)c3cccs3)C[C@H]1[C@@H]1O[C@@H]12 [Tiotropium] | 0.19 | 0.12 | 0.02 (0.29) L | 0.17 | 0.02 (0.27) L | 0.02 | 0.04 (0.33) L | 44 (57.1) n (%) | 1.8 (2.8) | 25 (52.1) n (%) | 1.6 (3.0) | 2.0 | 2.3 (2.5) | 19 (67.9) % | 0.3 | 1.6 | 1.3
